Key:
ABCB1 = ABCB1 (Homo sapiens, UniProt P08183); assay: Probe fluorescence in HCT-15 cells under verapamil; details: HCT-15, 10 to 10,000 nM verapamil
human KB3-1 cells = assay: MTS viability assay on KB3-1 cells; assay type: cell-based; details: 48 h
ABCG2 = target: T1, ABCG2 (Homo sapiens, UniProt Q9UNQ0); assay: Probe fluorescence in ABCG2/KB3-1 cells under Ko143; details: ABCG2/KB3-1, 10 to 1,000 nM Ko143
T1 sequence (Q9UNQ0 1-655): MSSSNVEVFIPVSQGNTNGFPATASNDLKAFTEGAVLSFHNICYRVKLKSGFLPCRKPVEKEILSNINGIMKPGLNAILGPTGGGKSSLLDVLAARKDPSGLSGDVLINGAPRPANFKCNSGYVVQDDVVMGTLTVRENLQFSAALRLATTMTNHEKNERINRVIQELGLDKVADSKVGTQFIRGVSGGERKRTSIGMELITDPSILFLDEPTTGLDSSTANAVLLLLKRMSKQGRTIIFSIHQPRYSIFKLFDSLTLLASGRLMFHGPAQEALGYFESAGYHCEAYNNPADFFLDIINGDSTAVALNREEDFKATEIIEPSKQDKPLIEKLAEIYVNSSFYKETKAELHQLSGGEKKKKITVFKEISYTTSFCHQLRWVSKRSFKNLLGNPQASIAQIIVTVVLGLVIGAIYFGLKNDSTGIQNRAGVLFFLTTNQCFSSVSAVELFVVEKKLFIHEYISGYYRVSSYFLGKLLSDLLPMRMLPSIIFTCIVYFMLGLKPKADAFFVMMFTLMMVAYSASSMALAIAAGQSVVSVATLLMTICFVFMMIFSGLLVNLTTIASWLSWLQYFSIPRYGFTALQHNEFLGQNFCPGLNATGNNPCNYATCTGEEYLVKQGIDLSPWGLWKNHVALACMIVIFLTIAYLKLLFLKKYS

differentiated NS5 cells = assay: CDg13 staining of differentiated NS5 cells under ABC transporter inhibitors (flow cytometry); assay type: cell-based, mouse; details: inhibitor during staining
Description: (§1) Flow cytometry was performed using Attune Cytometer (Invitrogen). Hoechest33342 (2 μM) and CDg13 (1 μM) are incubated with culture media for 1 hours and detached as single cells. The collected cells were suspended in BSA- and FBS-free DMEM to prevent loss of CDg13 signal. The average fluorescence intensity of total cells in each experimental group was analyzed by Attune cytometer software for quantification study.

NS-5 cells = assay: CDg13 staining of NS5 cells under STF31, ionomycin or Ko143; assay type: cell-based, mouse; details: STF31 2 μM, ionomycin 0.1 μM, Ko143 0.5 μM
Description: FIGS. 7A-7C show CDg13 stains depending on Abcg2 activity: (A) CDg13 (1 μM) were stained for 1 hour in live (A-1) or dead cells treated with 4% PFA (A-2) (representative image of three independent experiments, and (B) and (C) NS5 cells were treated STF31 (2 μM), ionomycin (0.1 μM) or Ko143 (0.5 μM) with treatment of CDg13 and Hoechst33342 under normal media (control had same amount of DMSO (0.2%) with other drugs treated group), staining intensity is shown by epifluorescence microscopy (B) or flow cytometry (C) (bar: 50 μm).
as §1

[1] = Spectroscopic properties of CF library (absorbance, emission, quantum yield, extinction coefficient); assay type: physicochemical; details: 100 μM in ethanol
Description: All the chemicals and solvents were purchased from Sigma Aldrich, Alfa Aesar, Fluka, MERCK, Tocris or Acros, and used without further purification. Normal phase purifications were carried out using Merck Silica Gel 60 (particle size: 0.040-0.063 mm, 230-400 mesh). Analytical characterization was performed on a HPLC-MS (Agilent-1200 series) with a DAD detector and a single quadrupole mass spectrometer (6130 series) with an ESI probe. ^1H-NMR and ^13C-NMR spectra were recorded on Bruker Avance 300 MHz NMR spectrometers, and chemical shifts are expressed in parts per million (ppm) and coupling constants are reported as a J value in Hertz (Hz). High resolution mass spectrometry (HRMS) data was recorded on a Micro mass VG 7035 (Mass Spectrometry Laboratory at National University of Singapore (NUS)). Spectroscopic and quantum yield data were measured on spectroscopic measurements, performed on a fluorometer and UV/VIS instrument, Synergy 4 of Bioteck Company. The slit width was 1 nm for both excitation and emission, and the data analysis was performed using GraphPrism 5.0.

ABCB1, sequence (P08183 whole entry): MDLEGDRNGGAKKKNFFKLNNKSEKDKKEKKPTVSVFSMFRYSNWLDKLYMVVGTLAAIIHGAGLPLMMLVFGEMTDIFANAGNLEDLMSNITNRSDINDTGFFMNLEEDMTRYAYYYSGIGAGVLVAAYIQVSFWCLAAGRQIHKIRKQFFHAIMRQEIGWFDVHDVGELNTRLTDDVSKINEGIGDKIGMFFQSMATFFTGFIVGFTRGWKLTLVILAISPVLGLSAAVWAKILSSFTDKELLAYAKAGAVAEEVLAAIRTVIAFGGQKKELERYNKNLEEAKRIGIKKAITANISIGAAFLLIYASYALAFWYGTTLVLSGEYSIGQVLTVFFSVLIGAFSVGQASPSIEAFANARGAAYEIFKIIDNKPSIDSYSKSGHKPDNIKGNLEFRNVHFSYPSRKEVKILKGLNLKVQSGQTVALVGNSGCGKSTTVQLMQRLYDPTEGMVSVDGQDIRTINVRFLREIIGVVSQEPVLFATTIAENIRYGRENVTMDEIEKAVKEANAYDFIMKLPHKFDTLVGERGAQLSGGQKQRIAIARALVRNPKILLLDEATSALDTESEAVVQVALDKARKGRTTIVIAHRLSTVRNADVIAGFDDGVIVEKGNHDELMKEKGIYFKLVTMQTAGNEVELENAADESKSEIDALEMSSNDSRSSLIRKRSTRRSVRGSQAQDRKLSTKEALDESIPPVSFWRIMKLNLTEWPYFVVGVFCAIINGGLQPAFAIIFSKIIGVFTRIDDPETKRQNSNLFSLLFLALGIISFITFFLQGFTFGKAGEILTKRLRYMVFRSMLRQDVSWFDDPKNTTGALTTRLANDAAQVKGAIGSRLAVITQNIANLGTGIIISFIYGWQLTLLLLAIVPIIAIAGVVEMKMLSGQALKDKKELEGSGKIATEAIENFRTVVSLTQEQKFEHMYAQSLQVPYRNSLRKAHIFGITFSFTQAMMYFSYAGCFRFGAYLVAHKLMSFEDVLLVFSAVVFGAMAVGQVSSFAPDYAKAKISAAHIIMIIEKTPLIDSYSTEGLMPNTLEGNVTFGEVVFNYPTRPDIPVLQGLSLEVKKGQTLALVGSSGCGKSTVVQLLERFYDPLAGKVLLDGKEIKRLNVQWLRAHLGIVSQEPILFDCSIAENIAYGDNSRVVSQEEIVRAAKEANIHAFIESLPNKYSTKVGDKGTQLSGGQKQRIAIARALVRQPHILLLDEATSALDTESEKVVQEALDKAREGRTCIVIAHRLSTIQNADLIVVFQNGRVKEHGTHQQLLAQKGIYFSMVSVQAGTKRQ

Molecule: CCOc1ccc(-c2nc3ccc(-c4nc5ccc(N6CCN(C)CC6)cc5[nH]4)cc3[nH]2)cc1 [Hoechst 33342]
- fold change of staining (ABCB1): up to 1.5 fold
- death rate (human KB3-1 cells; 1 μM): 25%
- cell death (human KB3-1 cells; 10 μM): 100%
- fold change in fluorescence intensity (ABCG2): up to 1.3 fold

Molecule: COc1ccc2c3c([nH]c2c1)[C@H](CC(C)C)N1C(=O)[C@H](CCC(=O)OC(C)(C)C)NC(=O)[C@@H]1C3 [Ko143]
- staining of CDg13 versus DMSO control (differentiated NS5 cells): around 2.5 fold
- effect on CDg13 staining (NS-5 cells): stained CDg13 more strongly than normal NS-5 cells

Molecule: CCCN(CCC)S(=O)(=O)c1ccc(C(=O)O)cc1 [probenecid]
- staining of CDg13 versus DMSO control (differentiated NS5 cells): no effect of probe staining

Molecule: CN(C)C(=O)CCSC(SCCC(=O)O)c1cccc(/C=C/c2ccc3ccc(Cl)cc3n2)c1 (stereo not drawn) [MK571]
- staining of CDg13 versus DMSO control (differentiated NS5 cells): ~1.5 fold

Molecule: Rhodamine123
- fold change of staining (ABCB1): up to 4.0 fold
- fold change in fluorescence intensity (ABCG2): did not increase

Molecule: COc1cc2c(cc1OC)CN(CCc1ccc(NC(=O)c3cccc4c(=O)c5cccc(OC)c5[nH]c34)cc1)CC2 [Elacridar, elacridar]
- staining of CDg13 versus DMSO control (differentiated NS5 cells): around 2.5 fold

Molecule: COc1ccc(CCN(C)CCCC(C#N)(c2ccc(OC)c(OC)c2)C(C)C)cc1OC (stereo not drawn) [verapamil]
- staining of CDg13 versus DMSO control (differentiated NS5 cells): no effect of probe staining

Molecule: CN(Cc1ccccc1)C(=O)c1ccc(-c2c3cc(Cl)c(=O)cc-3oc3cc(O)c(Cl)cc23)cc1 [CF-B6]
- Abs (nm) [1]: 520 nm
- Em (nm) [1]: 558 nm
- QY (Φ) ([1]; reference fluorescein): 0.77

— patent US20180024136A1, “Development of ABCG2-Sensitive Fluorescent Probe For Isolation of ABCG2low Neural Stem/Progenitor Cells” (National University of Singapore, priority 2015, published 2018)
